Test results reported in ChEMBL document CHEMBL3046586, “Lethal and sublethal effects of buprofezin and imidacloprid on Bemisia tabaci (Hemiptera: Aleyrodidae)” (2011).
Values after ≈ are worked out from the molar mass of the structure shown. Active and inactive are the calls of the source. No cut-off for these calls is given here.

Tests used:
Bemisia tabaci [1] = experiment: Insecticidal activity against adult female Bemisia tabaci (sweet potato whitefly) in compound treated cucumber leaves assessed as mortality at 2000 ppm at 25 +/- 1 degC, 70 +/- 5% RH after 48 hr (reference value: 9.3%); assay type: functional
Bemisia tabaci [2] = experiment: Insecticidal activity against adult female Bemisia tabaci (sweet potato whitefly) in compound treated cucumber leaves assessed as mortality at 10000 ppm at 25 +/- 1 degC, 70 +/- 5% RH after 48 hr (reference value: 9.3%); assay type: functional
Bemisia tabaci [3] = experiment: Insecticidal activity against adult female Bemisia tabaci (sweet potato whitefly) in compound treated cucumber leaves assessed as longevity at LC25 concentration at 25 +/- 1 degC, 70 +/- 5% RH after 48 hr (reference value: 8.31 days); assay type: functional
Bemisia tabaci [4] = experiment: Insecticidal activity against male Bemisia tabaci (sweet potato whitefly) in compound treated cucumber leaves assessed as mortality at 10000 ppm at 25 +/- 1 degC, 70 +/- 5% RH after 48 hr (reference value: 6.3%); assay type: functional
Bemisia tabaci [5] = experiment: Insecticidal activity against Bemisia tabaci (sweet potato whitefly) at first instar larvae stage in compound treated cucumber leaves assessed as mortality measured as dry larvae and detached from leaf at 25 +/- 1 degC, 70 +/- 5% RH after 7 days; assay type: functional; conditions: 168 h
Bemisia tabaci [6] = experiment: Insecticidal activity against adult female Bemisia tabaci (sweet potato whitefly) in compound treated cucumber leaves assessed as laid eggs at LC25 concentration at 25 +/- 1 degC, 70 +/- 5% RH after 48 hr; assay type: functional, organism-based
Bemisia tabaci [7] = experiment: Insecticidal activity against male Bemisia tabaci (sweet potato whitefly) in compound treated cucumber leaves assessed as mortality at 2000 ppm at 25 +/- 1 degC, 70 +/- 5% RH after 48 hr (reference value: 6.3%); assay type: functional
Bemisia tabaci [8] = experiment: Insecticidal activity against male Bemisia tabaci (sweet potato whitefly) in compound treated cucumber leaves assessed as mortality at 8000 ppm at 25 +/- 1 degC, 70 +/- 5% RH after 48 hr (reference value: 6.3%); assay type: functional
Bemisia tabaci [9] = experiment: Insecticidal activity against adult female Bemisia tabaci (sweet potato whitefly) in compound treated cucumber leaves assessed as egg hatch at LC25 concentration at 25 +/- 1 degC, 70 +/- 5% RH after 48 hr (reference value: […]); assay type: functional
Bemisia tabaci [10] = experiment: Insecticidal activity against adult female Bemisia tabaci (sweet potato whitefly) in compound treated cucumber leaves assessed as offspring sex ratio at LC25 concentration at 25 +/- 1 degC, 70 +/- 5% RH after 48 hr (Rvb Female/Female + male)= 0.60 no unit); assay type: functional
Bemisia tabaci [11] = experiment: Insecticidal activity against Bemisia tabaci (sweet potato whitefly) at pupae stage in compound treated cucumber leaves assessed as mortality measured as dry larvae and detached from leaf at 25 +/- 1 degC, 70 +/- 5% RH after 7 days; assay type: functional; conditions: 168 h
Bemisia tabaci [12] = experiment: Insecticidal activity against Bemisia tabaci (sweet potato whitefly) at third instar larvae stage in compound treated cucumber leaves assessed as mortality measured as dry larvae and detached from leaf at 25 +/- 1 degC, 70 +/- 5% RH after 7 days; assay type: functional; conditions: 168 h
Bemisia tabaci [13] = experiment: Insecticidal activity against adult female Bemisia tabaci (sweet potato whitefly) in compound treated cucumber leaves assessed as mortality at 8000 ppm at 25 +/- 1 degC, 70 +/- 5% RH after 48 hr (reference value: 9.3%); assay type: functional
Bemisia tabaci [14] = experiment: Insecticidal activity against Bemisia tabaci (sweet potato whitefly) at egg stage in compound treated cucumber leaves assessed as egg hatch at 8000 ppm at 25 +/- 1 degC, 70 +/- 5% RH after 10 days (reference value: 91%); assay type: functional
Bemisia tabaci [15] = experiment: Insecticidal activity against Bemisia tabaci (sweet potato whitefly) at egg stage in compound treated cucumber leaves assessed as egg hatch at 2000 ppm at 25 +/- 1 degC, 70 +/- 5% RH after 10 days (reference value: 91%); assay type: functional
Bemisia tabaci [16] = experiment: Insecticidal activity against Bemisia tabaci (sweet potato whitefly) at second instar larvae stage in compound treated cucumber leaves assessed as mortality measured as dry larvae and detached from leaf at 25 +/- 1 degC, 70 +/- 5% RH after 7 days; assay type: functional; conditions: 168 h
Bemisia tabaci [17] = experiment: Insecticidal activity against Bemisia tabaci (sweet potato whitefly) at egg stage in compound treated cucumber leaves assessed as egg hatch at 10000 ppm at 25 +/- 1 degC, 70 +/- 5% RH after 10 days (reference value: 91%); assay type: functional
Bemisia tabaci [18] = experiment: Insecticidal activity against male Bemisia tabaci (sweet potato whitefly) in compound treated cucumber leaves assessed as mortality after 48 hr; assay type: functional
Bemisia tabaci [19] = experiment: Insecticidal activity against Bemisia tabaci (sweet potato whitefly) at egg stage in compound treated cucumber leaves assessed as mortality measured as failure to hatch at 25 +/- 1 degC, 70 +/- 5% RH after 10 days; assay type: functional; conditions: 240 h
Bemisia tabaci [20] = experiment: Insecticidal activity against adult female Bemisia tabaci (sweet potato whitefly) in compound treated cucumber leaves assessed as mortality after 48 hr; assay type: functional

SMILES	Time (Bemisia tabaci [3])	LC50 (Bemisia tabaci [5])	Activity (Bemisia tabaci [6])	Activity (Bemisia tabaci [9])	Ratio (Bemisia tabaci [10])	LC50 (Bemisia tabaci [11])	LC50 (Bemisia tabaci [12])	LC50 (Bemisia tabaci [16])	further results
CC(C)N1C(=O)N(c2ccccc2)CS/C1=N\C(C)(C)C [BUPROFEZIN]	4.85 days	0.99 mg/L (≈ 3.24 µM)	Active	66%	0.5	979 mg/L (≈ 3210 µM)	44.7 mg/L (≈ 146 µM)	10.9 mg/L (≈ 35.8 µM)	mortality at 2000 ppm (Bemisia tabaci [1]): 8%; mortality at 10000 ppm (Bemisia tabaci [2]): 9.3%; mortality at 10000 ppm (Bemisia tabaci [4]): 19%; mortality at 2000 ppm (Bemisia tabaci [7]): 11.3%; mortality at 8000 ppm (Bemisia tabaci [8]): 10%; mortality at 8000 ppm (Bemisia tabaci [13]): 8%; Activity (Bemisia tabaci [14]): 68%; Activity (Bemisia tabaci [15]): 88%; Activity (Bemisia tabaci [17]): 72%
O=[N+]([O-])/N=C1\NCCN1Cc1ccc(Cl)nc1 [IMIDACLOPRID]	11.7 days	19.3 mg/L (≈ 75.5 µM)	inactive	87.42%	0.56	2850 mg/L (≈ 11200 µM)	335 mg/L (≈ 1310 µM)	85.4 mg/L (≈ 334 µM)	LC50 (Bemisia tabaci [18]): 11.8 mg/L (≈ 46.2 µM); LC50 (Bemisia tabaci [19]): 151 mg/L (≈ 591 µM); LC25 (Bemisia tabaci [20]): 4.64 ppm; LC50 (Bemisia tabaci [20]; Bemisia tabaci, 48 h): 71.6 mg/L (≈ 280 µM)
